Source: patent publication US20130324556A1, “Protease Activated Receptor 2 (PAR2) Antagonists” (priority 2011, published 2013)
Where a name gives a salt, the structure may show the parent alone.

What follows are molecules tested against T1, human PAR2 receptor (Homo sapiens, UniProt P55085) (assay: PAR2 antagonist activity, calcium flux FLIPR assay (trypsin challenge)). Conditions: not given.
T1 construct: expressed in transfected cells; host or cells: 1321N1 cells
T1 sequence (P55085 26-397): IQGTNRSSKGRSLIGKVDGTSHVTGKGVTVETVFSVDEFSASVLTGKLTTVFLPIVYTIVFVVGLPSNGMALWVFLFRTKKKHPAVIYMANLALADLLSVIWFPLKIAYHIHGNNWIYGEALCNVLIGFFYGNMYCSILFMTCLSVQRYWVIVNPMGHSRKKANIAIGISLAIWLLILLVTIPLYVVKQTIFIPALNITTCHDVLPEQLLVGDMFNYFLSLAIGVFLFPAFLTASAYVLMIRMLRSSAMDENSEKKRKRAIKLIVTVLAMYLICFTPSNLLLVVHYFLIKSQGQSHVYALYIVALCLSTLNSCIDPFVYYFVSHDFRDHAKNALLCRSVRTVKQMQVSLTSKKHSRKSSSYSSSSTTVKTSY
Format: cell-based
Description: The PAR2 receptor couples through the Gq signaling pathway and results in activation of calcium mobilization. The functional activity of test compounds was routinely tested by measuring the ability of compounds to antagonize PAR2 (trypsin challenge) activity in a dose dependent manner, in 1321N1 cells transfected with the human PAR2 receptor, using a calcium flux Fluorescent Imaging Plate Reader FLIPR assay.
Briefly, test compounds were dissolved in DMSO to a concentration of 20 mM and stored in matrix screenmate racks. […] The compounds were then transferred to 384-well assay plates ready for use. […] The assay buffer used was HBSS buffer supplemented with 20 mM HEPES and 0.1% BSA (protease free), pH7.4. The loading/wash buffers were the same as the assay buffer.
Sub-cultivations were performed every 2-3 d. […] After washing, the cells were loaded with Fluo-4 AM dye (Molecular probes) at 2 μM containing 0.48 μg/mL pluronic acid for 60 min at 37° C. under 5% CO2.
A combined agonist/antagonist protocol was used to measure changes in intracellular calcium concentration. Compound (antagonist) was added to the cell plate using a Fluorometric Imaging Plate Reader (FLIPR) (Molecular Devices, Sunnyvale, Calif., USA). Basal fluorescence was recorded every second for 10 seconds prior to compound addition (10 μl) and fluorescence recorded every second for 1 min then every 6 seconds for a further 1 min. Trypsin (EC50 concentration) was then added using the FLIPR and fluorescence recorded as described above. Curve-fitting and parameter estimation were carried out using GraphPad Prism 4.0 (GraphPad Software Inc., San Diego, Calif.).

`NCc1ccc(CNC(=O)N2CCC(Nc3ccccc3Cl)CC2)cc1` [Example 17, N-{[4-(Aminomethyl)phen-yl]methyl}-4-[(2-chlorophenyl)amino]piper-idine-1-carboxamide dihydrochloride] gave an IC50 of less than 5 µM.

Same assay, conditions: 1321N1 cells transfected with the human PAR2 receptor; trypsin (EC50 concentration) challenge; calcium flux FLIPR; read-out: PAR2 IC50

`NCc1ccc(CNC(=O)N2CCC(C(=O)c3ccc(F)cc3)CC2)cc1` [Example 18, 2,2,2-Trifluoroacetic acid;- N-{[4-(aminomethyl)phenyl]methyl}-4-[(4-fluorophenyl)carbonyl] piperidine-1-carboxamide] and `NCc1ccc(CNC(=O)N2CCC(C(O)c3ccc(F)cc3)CC2)cc1` (centres unmarked) [Example 19, N-{[4-(Aminomethyl)phen-yl]methyl}-4-[(4-fluorophenyl)(hydroxy)meth-yl] piperidine-1-carboxamide] fall in the same range of IC50: 5 to 20 µM for the first, 5 to 20 µM for the second.

First: NCc1ccc(CNC(=O)N2CCC(c3ccccc3)CC2)cc1 [Example 20, N-{[4-(Aminomethyl)phen-yl]methyl}-4-phenylpiperidine-1-carboxamide hydrochloride]
Second: NCc1ccc(CNC(=O)N2CCC(c3ccccc3)C2)cc1 (centres unmarked) [Example 29, 2,2,2-Trifluoroacetic acid; N-{[4-(aminomethyl)phenyl]methyl}-3-phenylpyrrolidine-1-carboxamide]
The IC50 of the first is lower: 20 to 50 µM for the first, 50 to 100 µM for the second.

First: NCc1ccc(CNC(=O)N2CCCC(Cc3ccccc3)C2)cc1 (centres unmarked) [Example 21, 2,2,2-Trifluoroacetic acid; N-{[4-(aminomethyl)phenyl]methyl}-3-benzylpiperidine-1-carboxamide]
Second: NCc1ccc(CNC(=O)N2CCC(Cc3ccccc3)C2)cc1 (centres unmarked) [Example 28, N-{[4-(Aminomethyl)phen-yl]methyl}-3-benzylpyrrolidine-1-carboxamide]
The IC50 of the first is higher: 50 to 100 µM for the first, 20 to 50 µM for the second. The second is the more potent here.

First: NCc1ccc(CNC(=O)N2CCC(CCc3ccccc3)CC2)cc1 [Example 22, N-{[4-(Aminomethyl)phen-yl]methyl}-4-(2-phenylethyl)piperidine-1-carboxamide]
Second: N=C(N)c1ccc(CNC(=O)N2CCC(Cc3ccccc3)CC2)cc1 [Example 36, 4-Benzyl-N-[(4-carbamimidoylphenyl)methyl]piperidine-1-carboxamide]
The IC50 of the first is higher: 20 to 50 µM for the first, less than 5 µM for the second.

`NCc1ccc(CNC(=O)C2CCN(Cc3cccc(F)c3)CC2)cc1` [Example 23, N-{[4-(Aminomethyl)phen-yl]methyl}-1-[(3-fluorophenyl)methyl]piper-idine-4-carboxamide] and `N=C(N)c1ccc(CNC(=O)C2CCN(Cc3ccccc3)CC2)cc1` [Example 44, 1-Benzyl-N-[(4-carbamimidoylphenyl)meth-yl]piperidine-4-carboxamide dihydrochloride] fall in the same range of IC50: 5 to 20 µM for the first, 5 to 20 µM for the second.

`NCc1ccc(CNC(=O)N2CCN(Cc3ccccc3)CC2)cc1` [Example 24, N-{[4-(Aminomethyl)phen-yl]methyl}-4-benzylpiperazine-1-carboxamide] and `NCc1ccc(CNC(=O)N2CCN(Cc3ccccc3Cl)CC2)cc1` [Example 25, N-{[4-(Aminomethyl)phen-yl]methyl]-4-[(2-chlorophenyl)meth-yl]piperazine-1-carboxamide di-hydrochloride] fall in the same range of IC50: 5 to 20 µM for the first, 5 to 20 µM for the second.

`NCc1ccc(CNC(=O)N2CCN(C(=O)c3ccccc3)CC2)cc1` [Example 26, 2,2,2-Trifluoroacetic acid; N-{[4-(aminomethyl)phenyl]methyl}-4-benzoylpiperazine-1-carboxamide] and `NCc1ccc(CNC(=O)N2CCN(c3ccccc3)CC2)cc1` [Example 27, N-{[4-(Aminomethyl)phen-yl]methyl}-4-phenyl piperazine-1-carboxamide dihydrochloride] fall in the same range of IC50: 20 to 50 µM for the first, 20 to 50 µM for the second.

Compared with `CN(Cc1ccc(CN)cc1)C(=O)N1CCC(Cc2ccccc2)CC1` [Example 30, 2,2,2-Trifluoroacetic acid; N-{[4-(aminomethyl)phenyl]methyl}-4-benzyl-N-methylpiperidine-1-carboxamide], `CN(Cc1ccc(C(=N)N)cc1)C(=O)N1CCC(Cc2ccccc2)CC1` [Example 43, 4-Benzyl-N-[(4-carbamimidoylphenyl)methyl]-N-methylpiperidine-1-carboxamide hydrochloride] is lower in IC50: 50 to 100 µM for the first, 5 to 20 µM for the second. The second is the more potent here.

`NCc1ccc(CNC(=O)N2CCC(C(=O)N3CCCCC3)CC2)cc1` [Example 31, N-{[4-(Aminomethyl)phen-yl]methyl}-4-[(piperidin-1-yl)carbon-yl]piperidine-1-carboxamide hydrochloride] and `NCc1ccc(CNC(=O)N2CCC(C(=O)N3CCc4ccccc43)CC2)cc1` [Example 32, 2,2,2-Trifluoroacetic acid; N-{[4-(aminomethyl)phenyl]methyl}-4-[(2,3-dihydro-1H-indol-1-yl)carbonyl]piper-idine-1-carboxamide] fall in the same range of IC50: 50 to 100 µM for the first, 50 to 100 µM for the second.

Compared with `NCc1ccc(CNC(=O)N2CCC(n3c(=O)[nH]c4ccccc43)CC2)cc1` [Example 33, N-{[4-(Aminomethyl)phen-yl]methyl}-4-(2-oxo-2,3-dihydro-1H-1,3-benzodiazol-1-yl)piperidine-1-carboxa-mide hydrochloride], `NCc1ccc(CNC(=O)N2CCC(c3nc4ccccc4o3)CC2)cc1` [Example 34, N-{[4-(Aminomethyl)phen-yl]methyl}-4-(1,3-benzoxazol-2-yl)pipe-ridine-1-carboxamide] is lower in IC50: 20 to 50 µM for the first, less than 5 µM for the second.

`NCc1ccc(CNC(=O)N2CCC(Cc3ccccc3)CC2)cc1F` [Example 35, N-{[4-(Aminomethyl)-3-fluorophenyl]methyl}-4-benzylpiperidine-1-carboxamide] and `N=C(N)c1ccc(CNC(=O)N2CCC(Cc3ccccc3)CC2)cc1F` [Example 45, 4-Benzyl-N-[(4-carbamimidoyl-3-fluorophenyl)meth-yl]piperidine-1-carboxamide hydrochloride] cannot be ordered by IC50: less than 5 µM for the first, less than 5 µM for the second.

First: CNC(=N)c1ccc(CNC(=O)N2CCC(Cc3ccccc3)CC2)cc1 [Example 37, 2,2,2-Trifluoroacetic acid; 4-benzyl-N-{[4-(N-methylcarbamimidoyl)phen-yl]methyl} piperidine-1-carboxamide]
Second: CN(C)C(=N)c1ccc(CNC(=O)N2CCC(Cc3ccccc3)CC2)cc1 [Example 38, 2,2,2-Trifluoroacetic acid; 4-benzyl-N-{[4-(N,N-dimethylcar-bamimidoyl)phen-yl]methyl} piperidine-1-carboxamide]
The IC50 of the first is higher: 20 to 50 µM for the first, 5 to 20 µM for the second. The second is the more potent here.

`O=C(NCc1ccc(C2=NCCN2)cc1)N1CCC(Cc2ccccc2)CC1` [Example 39, 4-Benzyl-N-{[4-(4,5-dihydro-1H-imidazol-2-yl)phenyl]methyl}piperidine-1-carboxamide] and `O=C(NCc1ccc(-c2ncc[nH]2)cc1)N1CCC(Cc2ccccc2)CC1` [Example 51, 4-Benzyl-N-{[4-(1H-imidazol-2-yl)phenyl]methyl}piperidine-1-carboxamide] fall in the same range of IC50: 20 to 50 µM for the first, 20 to 50 µM for the second.

`N=C(N)c1ccc(CNC(=O)N2CCC(Cc3ccncc3)CC2)cc1` [Example 40, N-[(4-Carbamimidoylphen-yl)methyl]-4-(pyridin-4-ylmethyl)piperi-dine-1-carboxamide] and `N=C(N)c1ccc(CNC(=O)N2CCC(Cc3cccc(O)c3)CC2)cc1` [Example 47, N-[(4-Carbamimidoylphen-yl)methyl]-4-[(3-hydroxyphenyl)meth-yl]piperidine-1-carboxamide hydrochloride] cannot be ordered by IC50: less than 5 µM for the first, less than 5 µM for the second.

First: N=C(N)c1ccc(CNC(=O)N2CCC(c3ccccc3)C2)cc1 (centres unmarked) [Example 41, N-[(4-Carbamimidoylphen-yl)methyl]-3-phenylpyrrolidine-1-carboxamide hydrochloride]
Second: N=C(N)c1ccc(CNC(=O)N2CCN(Cc3ccccc3)CC2)cc1 [Example 42, 4-Benzyl-N-[(4-carbamimidoylphenyl)meth-yl]piperazine-1-carboxamide dihydrochloride]
The IC50 of the first is higher: 5 to 20 µM for the first, less than 5 µM for the second. The second is the more potent here.

First: N=C(N)c1ccc(CNC(=O)N2CCC(Cc3ccccc3)CC2)cn1 [Example 50, 4-Benzyl-N-[(6-carbam-imidoylpyridin-3-yl)methyl]piperidine-1-carboxamide hydrochloride]
Second: O=C(NCc1ccc2nc[nH]c2c1)N1CCC(Cc2ccccc2)CC1 [Example 52, N-(1H-1,3-Benzodiazol-6-ylmethyl)-4-benzylpiperidine-1-carboxamide]
The IC50 of the first is lower: less than 5 µM for the first, 5 to 20 µM for the second. The first is the more potent here.

First: O=C(NCc1cc2cnccc2[nH]1)N1CCC(Cc2ccccc2)CC1 [Example 53, 4-Benzyl-N-{1H-pyrrolo[3,2-c]pyridin-2-ylmethyl}piperidine-1-carboxamide]
Second: Cn1cnc2ccc(CNC(=O)N3CCC(Cc4ccccc4)CC3)cc21 [Example 54, 4-Benzyl-N-[(1-methyl-1H-1,3-benzodiazol-6-yl)methyl]piperidine-1-carboxamide]
The IC50 of the first is lower: 20 to 50 µM for the first, 50 to 100 µM for the second.
